Patent US7211567B1, “Composition for preventing and treating type I allergy” (Sunstar, Inc., priority 1999, dated 2007)

Legend:
[1] = system: histamine release (CRA-1 anti human FcεRI stimulated human whole blood cells); test: Histamine release suppression test using human whole blood; assay type: cell-based; conditions: for histamine release suppression rate: N=3, mean ± SD
Method: Human whole blood was collected from healthy volunteers and heparin was added thereto. A blood sample was prepared by adding 6 parts by weight of a histamine release buffer (Immunotech) to 1 part by weight of the whole blood to which the heparin had been added. 200 μl of the blood sample and 100 μl of a histamine release buffer comprising astragalin (33 μM), kaempferol (33 μM) or epinephrine (1638 μM or 4917 μM) were placed in an Eppendorf tube and allowed to stand for 30 minutes while cooling in ice (final concentration: 11 μM for astragalin, 11 μM for kaempferol, 546 μM or 1639 μM for epinephrine).
Centrifugal separation (3000 rpm, 5 minutes, 4° C.) was then carried out and the supernatant removed, and the resulting cells were again put into 300 μl of a histamine release buffer. 4.5 μl of 1 mg/ml CRA-1 (an anti human FcεRI receptor antibody, Cosmo Bio) was next added to the mixture (final CRA-1 concentration 15 μg/ml), and incubation was carried out for 30 minutes at 37° C. After centrifugation (3000 rpm, 10 minutes, 4° C.), the amount of histamine in the supernatant was measured using a histamine EIA kit (Immunotech). The histamine release suppression rate (%) was then calculated using undermentioned equation 3 from histamine amounts calculated from a calibration curve. The measurements were carried out with N=3, and the measurement values were represented by the mean and standard deviation.
[formula] A: Amount of histamine released from cells to which astragalin/kaempferol/epinephrine added (n mole) B: Amount of histamine released from untreated cells (n mole) C: Amount of histamine released from cells to which only CRA-1 added (n mole)

[2] = system: serum IgE level; test: Intake test using NC/Nga mice: serum IgE level; assay type: in vivo, NC/Nga male mice; conditions: 0.0007% astragalin in diet; end of experiment (13 weeks); control 6,018 ng/ml; difference statistically significant
Method: (§1) Ten 4-week-old NC/Nga male mice were purchased from Japan SLC, and were reared at a room temperature of 23±3° C. and a humidity of 55±15%, with a 12 hour light-dark cycle (light period 7:00 to 19:00). The mice were kept 5 to a cage, and were fed a standard diet (Labo MR Stock, Nihon Nosan Kogyo K.K.) for a 7-day preliminary period, before being divided into a control group and a group to be administered astragalin, each of 5 mice. The mice were then allowed to eat the following diets ad libitum. Control group: A diet prepared by adding a corn starch (0.0007%, Oriental Enzyme K.K.) to MF powder (Oriental Enzyme K.K.) and then mixing in a mixer.
(§2) Astragalin-administered group: A diet prepared by adding astragalin (0.0007%) to the MF powder and then mixing in a mixer.
The serum IgE level was measured at the start of the experiment and then at 2-week intervals until the end of the experiment by collecting blood from the orbit and then using a mouse IgE measurement kit ‘Yamasa’ EIA (lot 702). The serum IgE level measurement values were represented by the mean and standard deviation. The differences between the two groups were tested for statistical significance using t-tests, and a significance level of 5% or less was determined significant.

[3] = system: pollinosis symptoms; test: Pollinosis symptom scores in volunteers drinking astragalin solution; assay type: in vivo, human volunteers; conditions: for Impediment to daily life total point score / Nasal congestion total point score / Nasal discharge total point score / Sneezing total point score: mean of 13 volunteers
Method: Thirteen volunteers who had previously experienced pollinosis were asked to drink 240 μg of astragalin (in the form of 1 ml of concentrated persimmon leaf extract) dissolved in a suitable amount (50 to 200 ml) of water or hot water twice a day (morning and evening) starting 14 days before the start of the pollen season and ending 14 days after the start of the pollen season.
Sneezing, nasal discharge, nasal congestion and extent of impediment to daily life were evaluated using a points system both during the 7 days immediately before stopping drinking the astragalin solution (‘while drinking’ below) and during the 7 days immediately after stopping drinking the astragalin solution (‘after stopping drinking’ below).
For sneezing, 1 point was recorded for each sneeze. For nasal discharge, 1 point was recorded each time the nose was blown. […] For extent of impediment to daily life, 3 points were recorded when one could not settle down to work at all, 2 points were recorded when there was some impediment to working, 1 point was recorded when there was little impediment to working, and 0 points were recorded when there was no impediment to working; points were recorded daily.
The total point scores for the 7-day ‘while drinking’ period and the 7-day ‘after stopping drinking’ period are shown in Table 1 below as mean values over the 13 volunteers.

[4] = system: IL-4 mRNA expression in human basophilic leukemia cell line (KU812); test: Expression of IL-4 mRNA using RT-PCR in KU812 cells; assay type: cell-based; conditions: A23187 ionophore 1 μM
Method: A human basophilic leukemia cell line (KU812) was cultured at 37° C. with 5% CO2 in an RPMI 1640 culture medium (Gibco) containing 10% bovine fetal serum (treated at 56° C. for 30 minutes). The KU812 cells (5×10^5 cells/ml) were then stimulated using astragalin (0, 1.1, 3.3 or 11 μM) and an A23187 ionophore (1 μM). After washing, the total RNA was collected using RNAzol (Biotex, USA). 500 ng of the collected total RNA was mixed with an RT mixture (Perkin Elmer Cetus, USA), and then incubation was carried out for 5 minutes at 99° C. followed by 60 minutes at 37° C. After the RT products had been obtained, PCR amplification was carried out using an IL-4-specific primer and β-actin-specific primer. The products were subjected to migration in 2% agarose gel and stained with ethidium bromide, and then the amount of expression was evaluated.

[5] = system: passive cutaneous anaphylaxis (auricula swelling); test: Suppression of passive cutaneous anaphylaxis (PCA) in mice; assay type: in vivo, ddY male mice; conditions: astragalin 1.25 mg/kg oral
Method: Ten 5-week-old ddY male mice were purchased from Japan SLC, and were reared at a room temperature of 23±3° C. and a humidity of 55±15%, with a 12 hour light-dark cycle (light period 7:00 to 19:00). The mice were kept 5 to a cage, and were fed a standard diet (Labo MR Stock, Nihon Nosan Kogyo K.K.) for a 7-day preliminary period, before being divided into a group to be administered astragalin and a control group each of 5 mice. A 0.025% (w/v) solution of astragalin in distilled water was forcedly orally administered (1.25 mg/5 ml/kg) to the astragalin-administered group using a metal stomach tube, while distilled water was forcedly orally administered (5 ml/kg) to the control group. One hour after the administration, 20 μl of an anti-DNP mouse IgE antibody (10 μg/ml) was intracutaneously injected into the right auricula and 20 μl of physiological saline into the left auricula of each mouse. 24 hours after the intracutaneous injections, 100 μl of DNP-BSA (1 mg/ml) was intravenously injected into the tail of each mouse. 15 minutes later, the thicknesses of the left and right auriculae of each mouse were measured three times using a thickness gauge (Ozaki Seisakusho K.K.). The auricula swelling rate was then calculated for each group using undermentioned equation 1, and the auricula swelling suppression rate was calculated using undermentioned equation 2. The measurement values were represented by the mean and standard deviation.

[6] = system: atopic dermatitis in NC/Nga mice; test: Intake test using NC/Nga mice: dermal symptoms of atopic dermatitis; assay type: in vivo, NC/Nga male mice; conditions: 0.0007% astragalin in diet ad libitum; end of experiment (13 weeks old); 5 mice; control 4 of 5 developed symptoms
Method: NC/Nga mice are conventional grade animals, and atopic dermatitis model mice that spontaneously develop atopic dermatitis. Moreover, the development of atopy is accompanied by a rise in serum IgE level.
as §1, §2
The following judgement criteria were used.
Slight inflammation or scratch wounds: 1
Medium degree inflammation, scratch wounds or bleeding: 2
Severe inflammation, scratch wounds or bleeding: 3
For each mouse, the judgement was carried out for each of the head, the shoulders and the back, and then the highest of the three scores was taken as the ‘maximum score’. […]

[7] = after stopping drinking (7 days immediately after)
[8] = while drinking (7 days before stopping), 240 μg astragalin twice a day, p 0.003

CNC[C@H](O)c1ccc(O)c(O)c1 [epinephrine]
histamine release suppression rate ([1]; 546 μM final concentration): 31±3% | histamine release suppression rate ([1]; 1639 μM final concentration): 55±4%

O=c1c(O)c(-c2ccc(O)cc2)oc2cc(O)cc(O)c12 [kaempferol]
histamine release suppression rate ([1]; 11 μM final concentration): 31±9%

O=c1c(O[C@@H]2O[C@H](CO)[C@@H](O)[C@H](O)[C@H]2O)c(-c2ccc(O)cc2)oc2cc(O)cc(O)c12 [astragalin, kaempferol-3-glucoside]
serum IgE level [2]: 1,225 ng/ml | histamine release suppression rate ([1]; 11 μM final concentration): 50±7% | histamine release suppression action about the same as that of epinephrine of x times the concentration ([1]; astragalin 11 μM versus epinephrine 1639 μM): ~150 times | Impediment to daily life total point score [3, 7]: 10 ± 10 points | Nasal congestion total point score [3, 7]: 13 ± 11 points | Nasal discharge total point score [3, 7]: 62 ± 83 points | Sneezing total point score [3, 7]: 68 ± 79 points | rough skin condition ([3]; two of the volunteers with rough skin before treatment, while drinking the astragalin solution): improved | Sneezing total point score ([3]; while drinking (7 days before stopping), 240 μg astragalin twice a day as concentrated persimmon leaf extract, p 0.001): 23 ± 21 points | Nasal congestion total point score [3, 8]: 3 ± 3 points | Nasal discharge total point score [3, 8]: 21 ± 26 points | Impediment to daily life total point score ([3]; while drinking (7 days before stopping), 240 μg astragalin twice a day, p 0.005): 1 ± 2 points | IL-4 expression ([4]; astragalin 3.3 μM or 11 μM): particularly marked effects | IL-4 expression ([4]; astragalin 1.1, 3.3 or 11 μM): suppressed | right auricula thickness ([5]; anti-DNP IgE-injected right auricula, 15 min after DNP-BSA i.v., mean ± SD): 0.286±0.017 mm | auricula swelling suppression rate ([5]; versus distilled water control): 33% | auricula swelling rate ([5]; control 27.2±12.5%): 18.2±5.0% | left auricula thickness ([5]; saline-injected left auricula, 15 min after DNP-BSA i.v., mean ± SD): 0.242±0.013 mm | development of atopic dermatitis symptoms [6]: not one mouse had developed symptoms
